According to publication PMC6151428, “Discovery of Novel N-Substituted Prolinamido Indazoles as Potent Rho Kinase Inhibitors and Vasorelaxation Agents” (Molecules : A Journal of Synthetic Chemistry and Natural …, 2017):

Experiments:
ROCK I = target: T1, ROCK I (Homo sapiens, UniProt Q13464); test: Rho kinase activity assay (Cyclex CY-1160 kit); type: biochemical; details: for IC50: a: means of multiple experiments (N = 4), errors within 30% of the mean, b: single determinations, read-out: IC50 against ROCK I; for ROCK I activity compared in words: comparison with DL0805 or between series; for fold more active than DL0805 (ROCK I IC50): relative to DL0805 IC50 6.7 μM
T1 construct: purchased Cyclex, Nagoya, Japan CY-1160
T1 sequence (Q13464 whole entry, species assumed): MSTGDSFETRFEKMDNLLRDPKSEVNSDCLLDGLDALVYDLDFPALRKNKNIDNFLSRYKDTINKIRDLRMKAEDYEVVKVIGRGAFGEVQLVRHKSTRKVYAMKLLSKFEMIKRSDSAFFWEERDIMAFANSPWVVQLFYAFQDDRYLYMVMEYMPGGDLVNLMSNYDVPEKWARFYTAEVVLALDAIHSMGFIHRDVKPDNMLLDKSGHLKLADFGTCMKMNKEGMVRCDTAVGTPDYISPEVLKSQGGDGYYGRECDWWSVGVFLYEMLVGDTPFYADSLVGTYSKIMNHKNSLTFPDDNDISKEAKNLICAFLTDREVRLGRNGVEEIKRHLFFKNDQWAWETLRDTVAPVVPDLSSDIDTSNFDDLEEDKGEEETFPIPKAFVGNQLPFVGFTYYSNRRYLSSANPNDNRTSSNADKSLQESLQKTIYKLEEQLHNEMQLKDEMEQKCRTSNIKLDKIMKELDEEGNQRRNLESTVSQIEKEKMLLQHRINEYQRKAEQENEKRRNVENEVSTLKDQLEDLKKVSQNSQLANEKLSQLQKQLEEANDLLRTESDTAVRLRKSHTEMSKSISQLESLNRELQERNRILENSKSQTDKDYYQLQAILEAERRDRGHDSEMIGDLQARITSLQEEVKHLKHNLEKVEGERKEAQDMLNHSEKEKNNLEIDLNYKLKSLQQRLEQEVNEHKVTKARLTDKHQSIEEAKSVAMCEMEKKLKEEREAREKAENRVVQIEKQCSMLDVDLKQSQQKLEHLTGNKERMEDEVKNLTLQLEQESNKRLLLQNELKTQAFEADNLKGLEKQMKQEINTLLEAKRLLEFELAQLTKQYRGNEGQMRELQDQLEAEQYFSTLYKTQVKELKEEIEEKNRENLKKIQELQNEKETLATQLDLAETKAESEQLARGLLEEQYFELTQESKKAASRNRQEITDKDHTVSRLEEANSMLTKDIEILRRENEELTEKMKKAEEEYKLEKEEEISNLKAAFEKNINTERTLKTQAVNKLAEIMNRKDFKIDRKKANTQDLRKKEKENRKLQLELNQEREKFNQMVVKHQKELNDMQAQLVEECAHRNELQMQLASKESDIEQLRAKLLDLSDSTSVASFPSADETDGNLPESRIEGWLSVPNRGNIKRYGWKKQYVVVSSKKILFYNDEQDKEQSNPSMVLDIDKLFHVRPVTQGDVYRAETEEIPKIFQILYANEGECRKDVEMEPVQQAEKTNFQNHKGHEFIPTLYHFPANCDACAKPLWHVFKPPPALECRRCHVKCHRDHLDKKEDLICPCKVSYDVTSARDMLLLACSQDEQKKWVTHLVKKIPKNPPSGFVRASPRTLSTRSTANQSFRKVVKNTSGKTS
Description: Briefly, the compounds at 20 μM were pre-incubated in a system wherein ROCK I (0.02 ng/μL) phosphorylates the kinase substrate’s myosin-binding subunit (MBS) pre-absorbed onto the microplate in the presence of Mg^2+ and ATP. Then, the system was washed after incubation at 30 °C for 30 min. 100 μL of horseradish peroxidase-conjugated anti-AF20 antibody was added to the wells and then incubated for 30 min at room temperature. The reaction system was then incubated with the substrate tetra-methylbenzidine (TMB), which can be catalyzed from a colorless solution to a blue solution. The absorbance was measured at a wavelength of 450 nm on a microplate reader. The color reflects the relative level of ROCK I activity. The inhibitory rates of the compounds on ROCK I were obtained from OD 450 nm and the IC50 values were calculated by nonlinear regression.

rat aortic rings [1] = test: Vasorelaxant activity test, high-potassium model; details: rat aortic rings constricted with high K+ (60 mmol/L); a: mean N = 6; b: single determination; -- = No activity
Text: (§1) Abnormalities in the Rho/ROCK signaling pathway are associated with various cardiovascular diseases, especially hypertension. The inhibition of the Rho/ROCK pathway can cause the vessels to relax. The norepinephrine (NE)- or potassium chloride (KCl)-induced model of the rat aortic ring can trigger sustained vessel contraction and is usually used to evaluate vasorelaxant activity. DL0805 has shown vasorelaxant activity. Therefore, the nine compounds with significant inhibition against ROCK I were further tested for their vasorelaxant activity in rat aortic rings in both the high-potassium and NE models (Table 3). […] The potent active compound 4b with excellent activity has been further evaluated, and further pharmacokinetic and safety evaluations are in progress.
(§2) Male Sprague-Dawley rats weighing 240–280 g (Vital River Laboratories, Beijing, China) were maintained in a 12-h light/dark cycle at 24 °C in a relative humidity of 60% room, and received food and water ad libitum. The animal care and handling were performed in accordance with the Guide for the Care and Use of Laboratory Animals published by the US National Institutes of Health and the Laboratories Institutional Animal Care and Use Committee of the Chinese Academy of Medical Science and Peking Union Medical College (ethic approval number: 00001012).
(§3) The vasorelaxant activity assay was performed as described previously. Briefly, the descending thoracic aorta was isolated after rats were euthanized by cervical dislocation. Then, the aorta was cut into ring segments (3–4 mm in length). The endothelial layer of the aorta was destroyed by gently rubbing the luminal surface with a moist cotton swab when necessary. Two stainless-steel triangles were inserted into the lumen of each ring. One triangle was fixed, and the other attached to a force transducer. Changes in isometric force were recorded on a BIOPAC polygraph (MP100WSW, Biopac Systems, Inc, Goleta, CA, USA). The rings were mounted in organ baths containing 10 mL Krebs-Henseleit (K-H) buffer with the following composition (mM): NaCl 120, KCl 4.8, MgSO4 1.4, KH2PO4 1.2, glucose 11.0, CaCl2 2.5, NaHCO3 25.0 and EDTA 0.01. The K-H buffer was continuously bubbled with 95% O2/5% CO2 at 37 °C. Rings were allowed to equilibrate for 60 min at a resting tension of 1.2 g with changes of buffer every 20 min.
(§4) After the equilibration period, the aortic rings were constricted with a high K^+ (60 mM) K-H solution to stimulate the tissue and to test its availability. Then, the rings were washed with normal K-H buffer to restore the basic tension of 1.2 g. The aortic rings were then stimulated with a high K^+ (60 mmol/L) K-H buffer ornorepinephrine (1 μM) to evaluate the vasorelaxant effects of the compounds. When the contraction reached the platform, compounds were added to the bath in batches at 5-min intervals to reach the accumulative concentrations of 1, 2, 5, 10, 25 and 50 μM. The tension of vessels was recorded and nonlinear regression was used to calculate the EC50 values.

rat aortic rings [2] = test: Vasorelaxant activity test, NE model; details: rat aortic rings constricted with norepinephrine (1 μM); a: mean N = 6; b: single determination; -- = No activity
Text: as §1, §2, §3, §4

rat aortic rings [3] = test: Ex-vivo vasorelaxant activity in rat aortic rings (model not specified)
Text: as §1
The vasorelaxant activity assay was performed as described previously. Briefly, the descending thoracic aorta was isolated after rats were euthanized by cervical dislocation. Then, the aorta was cut into ring segments (3–4 mm in length). […] Changes in isometric force were recorded on a BIOPAC polygraph (MP100WSW, Biopac Systems, Inc, Goleta, CA, USA). […]
After the equilibration period, the aortic rings were constricted with a high K^+ (60 mM) K-H solution to stimulate the tissue and to test its availability. […] The tension of vessels was recorded and nonlinear regression was used to calculate the EC50 values.

[4] = compound concentration 20 μM, single determinations

Compound | IC50 (ROCK I) [µM] | ROCK I activity compared in words (ROCK I) | inhibition at 20 µM (ROCK I; [4]) [%] | EC50 (rat aortic rings [1]) [µM] | EC50 (rat aortic rings [2]) [µM] | melting point [°C] | fold more active than DL0805 (ROCK I IC50) (ROCK I) [fold] | vasorelaxant activity compared with fasudil (rat aortic rings [3]) | % Inhibition of ROCK I (ROCK I; [4]) [%]
O=C(Nc1ccc2[nH]ncc2c1)[C@H]1CCN(Cc2ccccc2)C1 [Compound 4h, (S)-1-Benzyl-N-(1H-indazol-5-yl)pyrrolidine-3-carboxamide] | 0.42 | activity profiles superior to DL0805 | 54.8 | 32.4 | > 50 | 203 to 204 |  |  | 
O=C(Nc1ccc2cn[nH]c2c1)[C@H]1CCCN1Cc1ccccc1 [Compound 3b, (R)-1-Benzyl-N-(1H-indazol-6-yl)pyrrolidine-2-carboxamide] |  |  | 15 |  |  | 192 to 193 |  |  | 
O=C(Nc1ccc2[nH]ncc2c1)[C@@H]1CCN(Cc2ccccc2)C1 [Compound 4i, (R)-1-Benzyl-N-(1H-indazol-5-yl)pyrrolidine-3-carboxamide] | 7.32 |  | 73.9 | 6.02 | 11.5 | 203 to 204 |  |  | 
O=C(Nc1ccc2[nH]ncc2c1)C1CCN(C(=O)c2ccc(Cl)cc2)C1 (centres unmarked) [Compound 5f, 1-(4-Chlorobenzoyl)-N-(1H-indazol-5-yl)pyrrolidine-3-carboxamide] | 7.26 |  | 55.2 | > 50 | > 50 | 225 to 227 |  |  | 
O=C(Nc1ccc2cn[nH]c2c1)[C@@H]1CCCN1Cc1ccccc1 [Compound 3c, (S)-1-Benzyl-N-(1H-indazol-6-yl)pyrrolidine-2-carboxamide] |  |  | 23.7 |  |  | 195 to 197 |  |  | 
COc1ccc(C(=O)N2CCC(C(=O)Nc3ccc4[nH]ncc4c3)C2)cc1 (centres unmarked) [Compound 5c, N-(1H-Indazol-5-yl)-1-(4-methoxybenzoyl)pyrrolidine-3-carboxamide] |  |  | 19.1 |  |  | 242 to 244 |  |  | 
O=C(Nc1ccc2[nH]ncc2c1)C1CCN(C(=O)c2ccc(Br)cc2)C1 (centres unmarked) [Compound 5d, 1-(4-Bromobenzoyl)-N-(1H-indazol-5-yl)pyrrolidine-3-carboxamide] |  |  | 27.9 |  |  | 250 to 251 |  |  | 
O=C(Nc1ccc2[nH]ncc2c1)[C@H]1CCCN1Cc1ccccc1 [Compound 2b, (R)-1-Benzyl-N-(1H-indazol-5-yl)pyrrolidine-2-carboxamide] |  |  | 24.3 |  |  | 199 to 201 |  |  | 
Cc1ccc(CN2CCC[C@@H]2C(=O)Nc2ccc3[nH]ncc3c2)cc1 [Compound 2e, (R)-N-(1H-Indazol-5-yl)-1-(4-methylbenzyl)pyrrolidine-2-carboxamide] |  |  |  |  |  | 203 to 205 |  |  | 
Cc1ccc(CN2CCC(C(=O)Nc3ccc4[nH]ncc4c3)C2)cc1 (centres unmarked) [Compound 4b, N-(1H-Indazol-5-yl)-1-(4-methylbenzyl)pyrrolidine-3-carboxamide] | 0.17 | activity profiles superior to DL0805 | 75.8 | 3.47 | 4.07 |  | 39 | comparable vasorelaxant activity to the approved drug fasudil | 
O=C(Nc1ccc2[nH]ncc2c1)C1CCN(C(=O)c2ccc([N+](=O)[O-])cc2)C1 (centres unmarked) [Compound 5e, N-(1H-Indazol-5-yl)-1-(4-nitrobenzoyl)pyrrolidine-3-carboxamide] |  |  | 45.4 |  |  | 177 to 178 |  |  | 
Cc1ccc(C(=O)N2CCC(C(=O)Nc3ccc4[nH]ncc4c3)C2)cc1 (centres unmarked) [Compound 5b, N-(1H-Indazol-5-yl)-1-(4-methylbenzoyl)pyrrolidine-3-carboxamide] | 11.5 |  | 54.9 | 60.6 | 15.6 | 224 to 226 |  |  | 
N#Cc1ccc(CN2CCC(C(=O)Nc3ccc4[nH]ncc4c3)C2)cc1 (centres unmarked) [Compound 4f, 1-(4-Cyanobenzyl)-N-(1H-indazol-5-yl)pyrrolidine-3-carboxamide] |  |  | 24.5 |  |  | 202 to 204 |  |  | 
O=S(=O)(c1cccc2cnccc12)N1CCCNCC1 [fasudil, reference compound] |  |  |  | 5.47 | 4.65 |  |  |  | 
O=C(Nc1ccc2[nH]ncc2c1)C1CCN(Cc2ccc(F)cc2)C1 (centres unmarked) [Compound 4g, 1-(4-Fluorobenzyl)-N-(1H-indazol-5-yl)pyrrolidine-3-carboxamide] | 1.41 | activity profiles superior to DL0805 | 63.8 | 19.5 | 8.91 | 202 to 203 |  |  | 
O=C(Nc1ccc2[nH]ncc2c1)[C@@H]1CCCN1Cc1ccccc1 [Compound 2c, (S)-1-Benzyl-N-(1H-indazol-5-yl)pyrrolidine-2-carboxamide] |  |  | 24.6 |  |  | 202 to 203 |  |  | 
O=C(Nc1ccc2[nH]ncc2c1)C1CCN(Cc2ccccc2)C1 (centres unmarked) [Compound 4a, 1-Benzyl-N-(1H-indazol-5-yl)pyrrolidine-3-carboxamide] | 0.27 | activity profiles superior to DL0805 | 73.2 | 4 | 5.62 | 203 to 204 | 24 | comparable vasorelaxant activity to the approved drug fasudil | 
O=C(Nc1ccc2cn[nH]c2c1)C1CCCN1Cc1ccccc1 (centres unmarked) [Compound 3a, 1-Benzyl-N-(1H-indazol-6-yl)pyrrolidine-2-carboxamide] |  |  | 16 |  |  | 195 to 196 |  |  | 
N-(1H-Indazol-5-yl)-1-(4-methoxybenzyl)pyrrolidine-3-carboxamide [Compound 4e] |  |  |  |  |  |  |  |  | 44.7
Cc1ccc(CN2CCC[C@H]2C(=O)Nc2ccc3[nH]ncc3c2)cc1 [Compound 2f, (S)-N-(1H-Indazol-5-yl)-1-(4-methylbenzyl)pyrrolidine-2-carboxamide] |  |  | 21.3 |  |  | 204 to 206 |  |  | 
COc1ccc(CN2CCC(C(=O)Nc3ccc4[nH]ncc4c3)C2)cc1 (centres unmarked) [Compound 4c, N-(1H-Indazol-5-yl)-1-(4-methoxybenzyl)pyrrolidine-3-carboxamide] | 1.86 | activity profiles superior to DL0805 | 53.3 | 5.8 | 5.57 |  |  |  | 
O=C(Nc1ccc2[nH]ncc2c1)C1CCN(C(=O)c2ccccc2)C1 (centres unmarked) [Compound 5a, 1-Benzoyl-N-(1H-indazol-5-yl)pyrrolidine-3-carboxamide] |  |  | 42.5 |  |  | 211 to 213 |  |  | 
O=C(Nc1ccc2[nH]ncc2c1)C1CCN(Cc2ccc(Br)cc2)C1 (centres unmarked) [Compound 4d, 1-(4-Bromobenzyl)-N-(1H-indazol-5-yl)pyrrolidine-3-carboxamide] | 0.51 | activity profiles superior to DL0805 | 62.5 | 58.1 | 46.8 | 235 to 236 |  |  | 
Cc1ccc(CN2CCCC2C(=O)Nc2ccc3[nH]ncc3c2)cc1 (centres unmarked) [Compound 2d, N-(1H-Indazol-5-yl)-1-(4-methylbenzyl)pyrrolidine-2-carboxamide] |  |  | 26.6 |  |  | 200 to 202 |  |  | 
O=C(Nc1ccc2[nH]ncc2c1)C1CCCN1Cc1ccccc1 (centres unmarked) [Compound 2a, 1-Benzyl-N-(1H-indazol-5-yl)pyrrolidine-2-carboxamide] |  |  | 27.2 |  |  | 200 to 201 |  |  | 
